Data set [1] in a line: Metabolic stability in rodent studies (mice blood and brain). Type of data set: in vivo. Particulars: 5 min. The protocol:
Rodent studies were then performed with [^18F]31, including control and P-gp knockout (k/o) mice models to validate the tracer as a non-P-gp substrate.

Data set [2] can be described thus: PET imaging of brain uptake in rhesus macaques. Type of data set: in vivo. The note with it: intravenous injection, all brain regions, FIG. 5A. Here is the method: All animal studies were performed under protocols approved by the University of Pennsylvania Institutional Animal Care and Use Committee. Male rhesus macaques (13-21 year old) were sedated with ketamine/dexdomidor and anesthesia maintained for imaging with 1% isoflurane. Temperature was maintained with a recirculating water warm pad and vital signs such as blood pressure, pulse oximetry, and EKG were monitored continuously. Three rhesus macaques were scanned on the G-PET, a high sensitivity, high resolution PET scanner using gadolinium orthosilicate crystals incorporated into an Anger-logic detector developed for brain imaging. Data was acquired for up to 50 min (6×10 sec, 3×60 sec, 3×120 sec, 3×180 sec, 4×300 sec, and 1 ×600 sec) in list mode after an intravenous injection of 101.6 MBq [^18F]FTT to one of the rhesus macaques, and 91.4-128.8 MBq [^18F]31 to two of the rhesus macaques. A venous blood sample was drawn into a heparinized syringe at 37 min post […] injection for metabolite analysis. […]
(§1) These images are similar to the those obtained and expected with [^18F]FTT (FIG. 5B), showing the PARPi to be non-BBB penetrable. Metabolic stability of [^18F]31 was assessed using the monkey blood from each imaging study and found 42% and 45% of the parent compound intact at 40 min and 37 min, respectively.

The nature of data set [3]: Metabolite analysis of monkey blood from the imaging studies. Type of data set: in vivo, rhesus macaques. Here is the method:
All animal studies were performed under protocols approved by the University of Pennsylvania Institutional Animal Care and Use Committee. Male rhesus macaques (13-21 year old) were sedated with ketamine/dexdomidor and anesthesia maintained for imaging with 1% isoflurane. Temperature was maintained with a recirculating water warm pad and vital signs such as blood pressure, pulse oximetry, and EKG were monitored continuously. Three rhesus macaques were scanned on the G-PET, a high sensitivity, high resolution PET scanner using gadolinium orthosilicate crystals incorporated into an Anger-logic detector developed for brain imaging. […]
The blood samples were centrifuged at 3000 G for 10 min to separate plasma and red blood cells. […] After the supernatant had been separated from the pellet, each portion was counted with a gamma counter (PerkinElmer Wizard 2480) to determine the extraction efficiency. […] The collected HPLC fractions were measured by Gamma Counter for further data analysis. Meanwhile the cold reference was also injected and monitored at 254 nm UV wavelength.
as §1

The subject of another data set is MEF WT cells. In words: Cell viability assay in MEF WT cells. The note with it: NA = Not applicable, no cell death observed. Type of data set: cell-based, mouse. Here is the method:
(§2) Genetically engineered PARP-1 and PARP-2 double knockout mouse embryonic fibroblast (MEF) were used for cell viability studies with wildtype control.
(§3) Cell viability assays were carried out using four cell lines including OVCAR8, MEF wt, MEF PARP-1 (−/−) KO, and MEF PARP-2 (−/−) KO as described in Makvandi cited above. Briefly, cells were seeded in black wall clear bottom 96-well plates at concentrations of 1,000 cells/well. […] Plates were read on an Enspire multimode plate reader (Perkin Elmer). Data was normalized to percent survival at each concentration evaluated by diving the luminescent signal in treated wells vs. the average of vehicle controls. Experiments were repeated three times and all compounds were assayed during each experiment.
(§4) This isogenic model was selected due to the highly conserved nature of the PARP catalytic domain, all-owing investigation in enzyme specificity.

Data set [4] deals with MEF PARP-1 (-/-) KO cells. Description: Cell viability assay in MEF PARP-1 KO-/- cells. Type of data set: cell-based. Particulars: Mus musculus, NA = Not applicable, no cell death observed. The protocol:
as §2, §3, §4
Enzyme dependency of selected compounds in MEF PARP-1 KO−/− cells (FIG. 2B) was performed as described above in order to identify if these analogues act through other cellular targets.

In data set [5] the test system is MEF PARP-2 (-/-) KO cells. Description: Cell viability assay in MEF PARP-2 KO-/- cells. Type of data set: cell-based, mouse. Particulars: Mus musculus, NA = Not applicable, no cell death observed. Here is the method: as §2, §3, §4
The cell cytotoxicity profile of these selected compounds in MEF PARP-2 KO−/− cell lines was then analyzed as described above.

The target in another data set is PARP-1 (Homo sapiens, UniProt P09874). Description: PARP-1 radioligand binding in live OVCAR8 cells ([125I]KX1 competition). Here is the method: Cells were cultured using standard techniques at 37° C. with 5% CO2 and 15% 02. […] Genetically engineered PARP-1 and PARP-2 double knockout mouse embryonic fibroblast (MEF) were used for cell viability studies with wildtype control. All cells were cultured in RPMI 1640 with 10% FBS and 1% penicillin/streptomycin.
Sequence of PARP-1 (P09874 whole entry): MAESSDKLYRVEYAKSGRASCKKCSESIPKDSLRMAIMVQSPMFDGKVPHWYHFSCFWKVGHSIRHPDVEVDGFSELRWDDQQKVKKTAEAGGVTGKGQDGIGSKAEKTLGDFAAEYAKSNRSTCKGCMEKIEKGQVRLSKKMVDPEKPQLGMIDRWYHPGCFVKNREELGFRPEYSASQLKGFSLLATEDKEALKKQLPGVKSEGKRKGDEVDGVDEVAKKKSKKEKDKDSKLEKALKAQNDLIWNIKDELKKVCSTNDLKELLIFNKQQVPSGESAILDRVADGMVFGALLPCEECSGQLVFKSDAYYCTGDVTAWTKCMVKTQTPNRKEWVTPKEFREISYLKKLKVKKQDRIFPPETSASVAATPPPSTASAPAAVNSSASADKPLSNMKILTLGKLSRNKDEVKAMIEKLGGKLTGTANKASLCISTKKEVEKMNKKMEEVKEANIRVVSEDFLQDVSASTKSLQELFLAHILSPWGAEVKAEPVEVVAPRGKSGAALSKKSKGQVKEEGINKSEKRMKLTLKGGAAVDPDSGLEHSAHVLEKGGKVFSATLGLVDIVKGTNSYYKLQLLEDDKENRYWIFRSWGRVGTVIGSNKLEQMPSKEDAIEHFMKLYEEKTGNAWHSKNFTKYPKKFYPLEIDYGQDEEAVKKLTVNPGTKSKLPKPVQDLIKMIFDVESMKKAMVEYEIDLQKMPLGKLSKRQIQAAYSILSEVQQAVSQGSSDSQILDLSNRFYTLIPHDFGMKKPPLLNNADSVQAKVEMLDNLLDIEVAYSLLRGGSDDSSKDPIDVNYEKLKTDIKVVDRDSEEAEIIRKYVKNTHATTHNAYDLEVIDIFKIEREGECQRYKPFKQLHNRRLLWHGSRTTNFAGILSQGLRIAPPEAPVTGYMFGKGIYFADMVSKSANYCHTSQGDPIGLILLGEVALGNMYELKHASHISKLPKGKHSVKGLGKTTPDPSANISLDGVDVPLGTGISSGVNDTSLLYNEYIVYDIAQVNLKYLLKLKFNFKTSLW
The affinity of each compound for the PARP-1 enzyme was evaluated using a radioligand binding method described in Makvandi, A radiotracer strategy to quantify PARP-1 expression in vivo provides a biomarker that can enable patient selection for PARP inhibitor therapy. Cancer Research 2016. Briefly, OVCAR8 ovarian cancer cells were seeded in 96-well Stripwell plates at a density of 40,000 cells/well 24 hrs prior to the study. On the day of study, compounds were diluted in RPMI to concentrations of 100 μM-0.064 nM. […] Reactions were allowed to equilibrate for 1 hr and were then washed with 200 μL of PBS. Wells were separated and counted on an automatic Wizard gamma counter (Perkin Elmer, Waltham Mass.). […] Experiments were repeated three times with adjusting dose concentrations to increase accuracy of IC50 values.
Compounds 10-17 were evaluated for PARP-1 inhibition using a radioligand binding assay protocol with BRCA1 methylated ovarian cancer cells (OVCAR8) as described above. See, Table 3. […] Compared to 1a, oxaazaspiro analogue 1b performed slightly better with scaffold 10b displaying a PARP-1 binding value of 24.9 nM.

In the case of `O=C(c1cc(Cc2n[nH]c(=O)c3ccccc23)ccc1F)N1CCC(OCC[18F])CC1` [[^18F]31], the “decomposition of the parent compound” value in data set [1] is on record as “over 80%”. Besides, the “brain uptake (PET)” value in data set [2] is “low brain uptake”; in data set [2] (listed as [18F]31) it was “no appreciable brain uptake”. Also, the parent compound intact in data set [3] (37 min) is 45%; in data set [3] (40 min), 42%.
In general, EC50 refers to the concentration giving half of the maximal effect. Broadly, the IC50 is the point on the concentration scale where inhibition reaches its midpoint. Take `CC(C)(C)OC(=O)N1CCC2(CC1)CN(C(=O)c1cc(Cc3n[nH]c(=O)c4ccccc34)ccc1F)C2` [Compound 12b, Tert-butyl 2-(2-fluoro-5-((4-oxo-3,4-dihydrophthalazin-1-yl)methyl)benzoyl)-2,7-diazaspiro[3.5]nonane-7-carboxylate]: the EC50 with MEF WT cells (Mus musculus) is about 23 µM; with MEF WT cells, 23.4 µM; in data set [4], 49.2 µM; in data set [5], 41.5 µM; at PARP-1 it was 3.12 µM. In addition, the IC50 on PARP-1 (radioligand binding in OVCAR8 cells) is 3.12 µM.

The values are drawn from patent US11542282B2, “Low affinity poly(AD-ribose) polymerase 1 dependent cytotoxic agents” (THE TRUSTEES OF THE UNIVERSITY OF PENNSYLVANIA, priority 2018, dated 2023).
